Converted amounts (≈) assume the structure as drawn.
Key:
[1] = tested on: IL-1β; assay: Inhibition of IL-1β production in LPS-stimulated THP-1 cells (ELISA); type: cell-based, human; conditions: Homo sapiens; Table 2; LPS-stimulated THP-1, 6 h post-stimulation; read-out: IC50 IL-1β in THP-1 cells
Experimental: (§1) Cell line. THP-1 cells (human monocyte) were maintained in RPMI 1640 medium containing 25 mM Hepes buffer, 2 mM L-glutamine, 50 units of penicillin per mL, 50 μg of streptomycin sulfate per mL, and 10% heat-inactivated fetal bovine serum (FBS) in a humidified incubator containing 5% CO2. The cells were split 1:4 weekly as recommended by the American Type Culture Collection (ATCC).
TNFα assay. Varying concentrations of the test compound or control compound were added to THP-1 cells plated at a density of 1×10^6cells/mL in 600 μL of 10% RPMI in a 48 well plate. After one hour the cells were stimulated with 0.5 μg of lipopolysaccharide (LPS; Sigma, lot number 43H40491) per mL. Six hours post-stimulation supernatants were collected and assayed for TNFα or IL-1β production using a commercially available cytokine detection ELISA (Enzyme Linked Immunosorbent Assay) kit according to the suppliers instructions. A suitable assay kit may be obtained from Biosource, or R and D systems. A novel xanthine analog, HWA-3138, having the structure (as shown below) was used as the control compound (30) in this study to monitor the response of the THP-l cells. Xanthine analogs are known inhibitors of TNFα but not IL-1β. In the following experiments compound HWA-3138 was used as a positive control. [drawing 58] […]
THP-1 cells were cultured and IL-1β inhibition assays were conducted as described for TNFα in Example 46, except a commercially available IL-1β assay kit, obtained from R and D Systems, Minneapolis, Minn., was used instead of the TNFα kit.
With reference now to FIG. 8, for each concentration of T70241 tested, the membrane bound IL-1β was separated from the IL-1β found free in the culture medium at 6 hours post-LPS stimulation as described in Example 46 for TNFα, and the percent inhibition of each fraction was graphed.

[2] = tested on: adenosine deaminase (ADA); assay: Enzymatic hydrolysis by adenosine deaminase; type: in vitro ADME, calf; conditions: 25° C.
Experimental: Adenosine deaminase (ADA, adenosine aminohydrolase, EC 3.5.4.4, SIGMA) from calf intestinal mucosa was prepared to give a stock of 1 mg/mL (250-280 units/mL) in pH 7.4, 0.01 M phosphate buffer. The relative rates of hydrolysis of selected compounds by ADA and characterization of the products was carried as follows. […] Fifty-microliter aliquots were taken at time intervals and hydrolysis was quenched by mixing with 0.45 mL of distilled water and then the diluted sample was heated at 95° C. for 6 min to ensure enxyme deactivation. The decrease in substrate concentration and the formation of the products was followed over time by UV-spectroscopic analysis. Adenosine was used as a control in this experiment and one unit is defined as the amount of ADA that hydrolyzes 1.0 μmol of adenosine/min at 25° C.

[3] = tested on: TNFα; conditions: by inhibition of PDE activity; cited from earlier work
[4] = tested on: TNFα; assay: Inhibition of TNFα production in LPS-stimulated THP-1 cells (ELISA); type: cell-based, human; conditions: Homo sapiens; Table 2; LPS-stimulated THP-1, 6 h post-stimulation
Experimental: as §1
TNFα assay. Varying concentrations of the test compound or control compound were added to THP-1 cells plated at a density of 1×10^6cells/mL in 600 μL of 10% RPMI in a 48 well plate. After one hour the cells were stimulated with 0.5 μg of lipopolysaccharide (LPS; Sigma, lot number 43H40491) per mL. Six hours post-stimulation supernatants were collected and assayed for TNFα or IL-1β production using a commercially available cytokine detection ELISA (Enzyme Linked Immunosorbent Assay) kit according to the suppliers instructions. A suitable assay kit may be obtained from Biosource, or R and D systems. A novel xanthine analog, HWA-3138, having the structure (as shown below) was used as the control compound (30) in this study to monitor the response of the THP-l cells. Xanthine analogs are known inhibitors of TNFα but not IL-1β. In the following experiments compound HWA-3138 was used as a positive control. [drawing 58]
Time of Addition. Varying concentrations of test or control compounds were added to THP-1 cells (1×10^6 cells/mL) at different time points post-stimulation using 0.5 μg of LPS (Sigma, lot number 43H40491) per mL in 300 μL of 10% RPMI in a 48 well plate. Six hours post-stimulationsupernatants were collected and assayed for TNFα or IL-1β production using a Biosource cytokine detection ELISA (Enzyme Linked Immunosorbent Assay) kit according to the supplier's instructions.
The membrane bound TNFα was separated from the free TNFα in the culture medium at 6 hours post-LPS stimulation as follows: The corresponding cells were centrifuged at 3500 rpm (~1,000×g) for 6 min. The supernatants were removed and the cell pellets were then resuspended in 200 μL of 0.25 mM Tris-HCl (pH 7.4). The cell associated TNFα was prepared by freezing the cell suspension in dry ice/ethanol and thawing at 37° C. three times with Vortexing in-between freeze-thaw cycles. Each cycle was 4-5 min apart.
To determine the long-term effects of phosphazole compound T70241 on TNFα production after a single treatment, THP-1 cells were pre-incubated with T70241, washed and resuspended in drug free medium. The xanthine analog HWA-3138 was used as a control.

[5] = tested on: HCMV; conditions: cited from earlier work
[6] = Cytotoxicity on growing Vero cells (MTS); type: cell-based; conditions: african green monkey, Table 4, 50% inhibition of logphase growing cells, read-out: TC50 Growing Vero
Experimental: (§2) Cell Culture. Vero (African Green Monkey kidney cells) and MRC-5 (diploid Human Embryonic Lung fibroblasts) cells were obtained from the American Type Culture Collection (ATCC) and were grown in minimal essential medium (MEM) with Earl's salts and glutamine (GIBCO BRL, Life Technologies, Inc.) with 10% heat inactivated fetal bovine serum (GIBCO BRL) and penicillin (100 μg/mL)/streptomycin (100 μg/mL).
(§3) Cytotoxicity Analysis. The cytotoxicity of the compound was assayed using few the CellTiter 96™ Aqueous Non-Radioactive Cell Proliferation (MTS) Assay (Promega). Briefly, viable cell number was determined by trypan blue staining and cells (MRC-5 and Vero) were resuspended in minimal essential medium (MEM) supplemented with 10% FBS (GIBCO). Eighty microliters of cell suspension (1.7×10^4 cells/well) was dispensed onto a 96-well microtiter plates. At this time 20 μL of drug (or control) was added to appropriate wells. Each concentration was assayed in quadruplicate. The plates were incubated at 37° C. in a humidified 5% CO2 atmosphere for 4 days and MTS assay was performed according to the manufacturer's instructions. The average absorbence of the sample was graphed for each concentration and the data obtained was used to calculate TC50 (the concentration necessary to give one-half maximum growth) for each compound.

[7] = Cytotoxicity on growing MRC-5 cells (MTS); type: cell-based, human; conditions: human, mrc-5 cells; Table 4; 50% inhibition of logphase growing cells; read-out: TC50 Growing MRC-5
Experimental: as §2, §3

[8] = Cytotoxicity on static MRC-5 cells; type: cell-based; conditions: human, Table 4, 50% cell death (static cells), read-out: TC50 Static MRC-5
Experimental: as §2, §3

[9] = tested on: HSV-2; assay: HSV-2 CPE assay in Vero cells; type: cell-based; conditions: Human alphaherpesvirus 2, Vero; Table 4
[10] = Cytotoxicity on static Vero cells; type: cell-based; conditions: african green monkey, Table 4, 50% cell death (static cells), read-out: TC50 Static Vero
Experimental: as §2, §3

[11] = tested on: HSV-1; assay: HSV-1 CPE assay in Vero cells; type: cell-based; conditions: Human alphaherpesvirus 1, Vero; Table 4
[12] = Cytotoxicity on growing THP-1 cells (MTS assay); type: cell-based, human; conditions: human, thp-1 cells; Table 2; drug dose required to inhibit logphase growing cells by 50%; read-out: TC50 Growing THP-1
Experimental: Cytotoxicity Analysis. The cytotoxicity of the compounds were assayed using the CellTiter 96™ Aqueous Non-Radioactive Cell Proliferation (MTS) Assay kit obtained from Promega (Madison, Wis.) following the instructions provided by the supplier. The viable cell number was determined by trypan blue staining and cells (THP-1) were resuspended in PRMI supplemented with 10% FBS (GIBCO). Eighty microliters of cell suspension (1.7×10^4cells/well) was dispensed onto a 96-well microtiter plates. At this time 20 μL of drug (or control) was added to appropriate wells. Each concentration was assayed in quadruplicate. The plates were incubated at 37° C. in a humidified 5% CO2 atmosphere for 4 days and MTS assay […] for each concentration and the data obtained was used to calculate TC50 (the concentration of the compound necessary to inhibit the cell growth by 50%) for each compound.

Which IC50 [1] does the source give for Nc1ncnc2c1ncn2[C@@H]1O[C@H](CO)[C@@H](O)[C@H]1O [Adenosine, reference compound] here?
The IC50 was > 250 µg/mL.

What about the “rate of hydrolysis by ADA” value [2] of the same compound?
The value was 1.0 pmole/unit per min.

And the “suppression of TNFα production” value [3]?
Its value is “suppression of TNFα production”.

And the IC50 [4]?
The IC50 was 100 µg/mL (≈ 374 µM).

Which “activity against HCMV” value [5] does the source give for Nc1ncnc2c1ccn2[C@@H]1O[C@H](CO)[C@@H](O)[C@@H]1F [arafluoro-tubercidin] here?
Its value is “selective activity against HCMV”.

With NC(=O)c1cn([C@H]2C[C@H](O)[C@@H](CO)O2)c2ncnc(N)c12 [2'-deoxysangivamycin] as the compound, how does the “activity against HCMV” value [5] read?
Its value is “selective activity against HCMV”.

With Nc1nc2c(ncn2COCCO)c(=O)[nH]1 [ACV, acyclovir, reference compound] as the compound, how does the CC50 at 96 h [6] read?
The CC50 at 96 h was > 250 µg/mL.

And the CC50 at 96 h [7]?
Its CC50 at 96 h is > 250 µg/mL.

What about the CC50 at 96 h [8] of the same compound?
The CC50 at 96 h was > 250 µg/mL.

And the IC50 [9]?
The IC50 was 0.74 µg/mL (≈ 3.29 µM).

What about the CC50 at 96 h [10] of the same compound?
Its CC50 at 96 h is > 250 µg/mL.

What about the IC50 [11] of the same compound?
The IC50 was 0.1 µg/mL (≈ 0.444 µM).

What does the source list for Nc1ncnc2pcn([C@H]3C[C@H](O)[C@@H](CO)O3)c12 (stereo partly drawn) [T70265, 7-Amino-1-(2-deoxy-β-D-eythro-pentofuranosyl)-1,3-azaphospholo[4,5-d]pyrimidine]?
IC50 [1]: > 100 µg/mL; CC50 at 96 h [12]: 105 µg/mL (≈ 390 µM); IC50 [4]: 26.2 µg/mL (≈ 97.6 µM)

With CC(=O)CCCCn1c(=O)c2c(ncn2C)n(C)c1=O [pentoxifylline] as the compound, how does the “suppression of TNFα production” value [3] read?
The value was “suppression of TNFα production”.

Which IC50 [1] does the source give for O=c1[nH]cnc2pc[nH]c12 (stereo not drawn) [T70256, 1,3-azaphospholo[4,5-d]pyrimidin-7(1H,6H)-one] here?
The IC50 was 170 µg/mL (≈ 1110 µM).

And the IC50 [4]?
Its IC50 is 168 µg/mL (≈ 1100 µM).

— patent US6069132A, “Phosphazole compounds” (priority 1997, dated 2000)
